Several values for one entry are separate records, joined by “and”; a condition that tells them apart may be missing. Equal values may be shown once. Entries after “also recorded” stand apart in the source; their conditions may differ. Read-outs that look alike come from different tables or passages of the source.
Columns and labels:
multiple myeloma = assay: differential staining cytotoxicity assay (DiSC), fresh tumor specimens; details: metachronous assays, no intervening therapy, patient MM-B, two dates
Small Cell Lung Cancer = assay: as above; format: cell-based, human; details: active = < 30% cell survival; concentrations of Table 1
[1] = system: Non-Small Cell Lung Cancer; assay: as above; format: cell-based, human; details: active = < 30% cell survival; concentrations of Table 1
CLL [2] = details: for Treated patients, Sensitive / Untreated patients, Sensitive: sensitive: < 30% cell survival
tumor cell specimens = assay: differential staining cytotoxicity assay (DiSC), general statements on drug exposure; format: cell-based, human; details: for activity in the assay at a 1-hour exposure (in words): must be tested at a continuous exposure
Assorted solid tumors = assay: differential staining cytotoxicity assay (DiSC), fresh tumor specimens; format: cell-based, human; details: for % of all specimens tested which were "sensitive" in vitro (< 30% cell survival): dexamethasone 0.4 μg/ml, cytarabine […], continuous 4-day exposure
ALL = details: for Treated patients, Resistant / Untreated patients, Resistant / Treated patients, Sensitive / Untreated patients, Sensitive: No. of patients; for Treated patients, Resistant / Untreated patients, Resistant: resistant: > 30% cell survival; for Treated patients, Sensitive / Untreated patients, Sensitive: sensitive: < 30% cell survival; for in vitro activity (in words): active = < 30% cell survival, concentrations of Table 1; for % of all specimens tested which were "sensitive" in vitro (< 30% cell survival): dexamethasone 0.4, cytarabine 3.3, vincristine […] continuous 4-day exposure, mechlorethamine 3.5, doxorubicin 1.67 μg/ml 1-hour exposure
ANLL = assay: differential staining cytotoxicity assay (DiSC), fresh tumor specimens; format: cell-based, human; details: for % of all specimens tested which were "sensitive" in vitro (< 30% cell survival): dexamethasone 0.4, cytarabine 3.3, vincristine […] continuous 4-day exposure, mechlorethamine 3.5, doxorubicin 1.67 μg/ml 1-hour exposure
CML-blast crisis = assay: as above; details: patient CML-BC, 11/09/82 before and 12/14/82 after V + P
[3] = system: non-Hodgkin's lymphoma, multiple myeloma, and blast crisis CML; details: data not shown; neoplasms considered together
CLL [4] = assay: cells; details: Homo sapiens, read-out: average % cell survival in vitro, Vincristine 0.08 µg/ml, continuous exposure; metachronous assays, no intervening therapy
[5] = active = < 30% cell survival, concentrations of Table 1
[6] = Cytarabine 1.0 µg/ml, continuous 4-day exposure
[7] = No. of patients, Dexamethasone 0.4 µg/ml, continuous 4-day exposure, resistant: > 30% cell survival
[8] = No. of patients, Dexamethasone 0.4 µg/ml, continuous 4-day exposure
[9] = No. of patients, Dexamethasone 4.0 µg/ml, continuous 4-day exposure, resistant: > 30% cell survival
[10] = No. of patients, Dexamethasone 4.0 µg/ml, continuous 4-day exposure
[11] = Dexamethasone 0.4 µg/ml, continuous 4-day exposure
[12] = Dexamethasone 4.0 µg/ml, continuous 4-day exposure
[13] = Doxorubicin 1.67 µg/ml, 1-hr exposure
[14] = cells from relapsed patients compared with untreated patients
[15] = Vincristine 0.08 µg/ml, continuous exposure, metachronous assays, no intervening therapy
[16] = Vincristine 0.08 µg/ml, continuous 4-day exposure

With `O=NN(CCCl)C(=O)NCCCl` [Carmustine, carmustine] the viability at 11 µg/mL (multiple myeloma; Homo sapiens, 1 h, read-out: average % cell survival in vitro, Carmustine […], 1 hour exposure) was 15%.

With `N.N.[Cl][Pt][Cl]` [Cisplatin, cisplatin] the “in vitro activity (in words)” value (Small Cell Lung Cancer) was “high activity”, the “in vitro activity (in words)” value [1] was “most active agent tested; also recorded: moderate activity” and the “in vitro activity (in words)” value (CLL [2]; [5]) was “completely refractory”.

In the case of `Nc1ccn([C@@H]2O[C@H](CO)[C@@H](O)[C@@H]2O)c(=O)n1` [Cytarabine, cytarabine], the “activity in the assay at a 1-hour exposure (in words)” value (“activity in the assay” for short) (tumor cell specimens) is reported as “not active”, the “% of all specimens tested which were "sensitive" in vitro (< 30% cell survival)” value (Assorted solid tumors) is reported as 3% (31) and the “Treated patients, Resistant” value (ALL; [6]) is reported as 7. For the same compound, the “Untreated patients, Resistant” value (ALL; [6]) was 4, the “Treated patients, Sensitive” value (ALL; [6]) was 2 and the “Untreated patients, Sensitive” value (ALL; [6]) was 6. For the same compound, the “in vitro activity (in words)” value (ALL) was “active”, the “% of all specimens tested which were "sensitive" in vitro (< 30% cell survival)” value (ALL) was 68% (19) and the “resistance in the assay, relapsed (treated) vs untreated patients (in words)” value (from here on “resistance … vs untreated patients (in words)”) (ALL; the higher concentration of cytarabine) was “significantly more resistant”. The “in vitro activity (in words)” value (ANLL; [5]) was “active” and the “% of all specimens tested which were "sensitive" in vitro (< 30% cell survival)” value (ANLL) was 76% (34).

In the case of `C[C@@H]1C[C@H]2[C@@H]3CCC4=CC(=O)C=C[C@]4(C)[C@@]3(F)[C@@H](O)C[C@]2(C)[C@@]1(O)C(=O)CO` [Dexamethasone, dexamethasone], the “activity in the assay” value (tumor cell specimens) is reported as “not active”, the “in vitro activity (in words)” value (Assorted solid tumors; [5]) is reported as “not active” and the “% of all specimens tested which were "sensitive" in vitro (< 30% cell survival)” value (Assorted solid tumors) is reported as 0% (34). For the same compound, the “% cell survival” value (CML-blast crisis; Dexamethasone 4.0 μg/ml, continuous exposure) was 68%, the viability at 4 µg/mL (CML-blast crisis; Homo sapiens, read-out: % cell survival, Dexamethasone 4.0 μg/ml, continuous exposure) was 73% and the “Treated patients, Resistant” value (CLL [2]; [7]) was 13. The “Untreated patients, Resistant” value (CLL [2]; [7]) was 18, the “Treated patients, Sensitive” value (CLL [2]; [8]) was 2 and the “Untreated patients, Sensitive” value (CLL [2]; [8]) was 10. For the same compound, the “Treated patients, Resistant” value (CLL [2]; [9]) was 10, the “Untreated patients, Resistant” value (CLL [2]; [9]) was 15 and the “Treated patients, Sensitive” value (CLL [2]; [10]) was 2. For the same compound, the “Untreated patients, Sensitive” value (CLL [2]; [10]) was 10, the “Treated patients, Resistant” value (ALL; [11]) was 7 and the “Untreated patients, Resistant” value (ALL; [11]) was 6. For the same compound, the “Treated patients, Sensitive” value (ALL; [11]) was 4, the “Untreated patients, Sensitive” value (ALL; [11]) was 16 and the “Treated patients, Resistant” value (ALL; [12]) was 7. For the same compound, the “Untreated patients, Resistant” value (ALL; [12]) was 5, the “Treated patients, Sensitive” value (ALL; [12]) was 3 and the “Untreated patients, Sensitive” value (ALL; [12]) was 13. The “in vitro activity (in words)” value (ALL) was “active”, the “% of all specimens tested which were "sensitive" in vitro (< 30% cell survival)” value (ALL) was 61% (33) and the “% of all specimens tested which were "sensitive" in vitro (< 30% cell survival)” value (ANLL) was 7% (41).

In the case of `COc1cccc2c1C(=O)c1c(O)c3c(c(O)c1C2=O)C[C@@](O)(C(=O)CO)C[C@@H]3O[C@H]1C[C@H](N)[C@H](O)[C@H](C)O1` [Doxorubicin, doxorubicin], the “% cell survival” value (CML-blast crisis; Doxorubicin 1.6 μg/ml, 1 hour exposure, 60 min) is reported as 86% and 59%, the “resistance in vitro, previously treated vs previously untreated patients (in words)” value [3] is reported as “significantly more resistant” and the “resistance in vitro, previously treated vs previously untreated patients (in words)” value (CLL [2]; prior treatment with alkylating agents (usually chlorambucil or cyclophosphamide) with or without prednisone) is reported as “significantly more resistant”. The “Treated patients, Resistant” value (ALL; [13]) was 7, the “Untreated patients, Resistant” value (ALL; [13]) was 1 and the “Treated patients, Sensitive” value (ALL; [13]) was 4. For the same compound, the “Untreated patients, Sensitive” value (ALL; [13]) was 10, the “in vitro activity (in words)” value (ALL) was “somewhat more sensitive than ANLL” and the “resistance … vs untreated patients (in words)” value (ALL; [14]) was “significantly more resistant”. The “% of all specimens tested which were "sensitive" in vitro (< 30% cell survival)” value (ALL) was 72% (18) and the “% of all specimens tested which were "sensitive" in vitro (< 30% cell survival)” value (ANLL) was 48% (27).

With `N[C@@H](Cc1ccc(N(CCCl)CCCl)cc1)C(=O)O` [Melphalan, melphalan] the “Treated patients, Resistant” value (CLL [2]) was 11 and 8.

With `CC[C@]1(O)C[C@H]2CN(CCc3c([nH]c4ccccc34)[C@@](C(=O)OC)(c3cc4c(cc3OC)N(C=O)[C@H]3[C@@](O)(C(=O)OC)[C@H](OC(C)=O)[C@]5(CC)C=CCN6CC[C@]43[C@@H]65)C2)C1` [Vincristine, vincristine] the “activity in the assay” value (tumor cell specimens) was “not active”, the viability at 0.08 µg/mL (CML-blast crisis; Homo sapiens, read-out: % cell survival, Vincristine 0.08 μg/ml, continuous exposure) was 69% and the “% cell survival” value (CML-blast crisis; Vincristine 0.08 μg/ml, continuous exposure) was 71%. The viability at 0.08 µg/mL (multiple myeloma; Homo sapiens, read-out: average % cell survival in vitro, Vincristine 0.08 µg/ml, continuous exposure) was 0%, the “average % cell survival in vitro” value (multiple myeloma; Vincristine 0.08 µg/ml, continuous exposure) was 0% and the viability at 0.08 µg/mL (CLL [4]) was 46%. The “average % cell survival in vitro” value (CLL [2]; [15]) was 48%, the “Treated patients, Resistant” value (ALL; [16]) was 10 and the “Untreated patients, Resistant” value (ALL; [16]) was 6. For the same compound, the “Treated patients, Sensitive” value (ALL; [16]) was 1, the “Untreated patients, Sensitive” value (ALL; [16]) was 10 and the “average % cell survival in vitro” value (ALL; [15]) was 44% and 71%. The “in vitro activity (in words)” value (ALL) was “considerably more sensitive”, the “resistance … vs untreated patients (in words)” value (ALL; [14]) was “significantly more resistant” and the “% of all specimens tested which were "sensitive" in vitro (< 30% cell survival)” value (ALL) was 56% (25). The “% of all specimens tested which were "sensitive" in vitro (< 30% cell survival)” value (ANLL) was 22% (23).

For `O=P1(N(CCCl)CCCl)NCCCO1` (centres unmarked) [cyclophosphamide], the “activity in vitro (in words)” value (tumor cell specimens) was “not active in vitro”.

Reference: patent EP0272791A2 (priority 1986, dated 1988)
